Laboratory results from US20260216174A1, “TREATMENT OF ER+ BREAST CANCER COMPRISING HOMOLOGOUS RECOMBINATION DEFICIENCY USING PARG INHIBITOR” (IDEAYA BIOSCIENCES, INC., priority 2023, published 2026).

Test system: HCC1428 tumors
Assay: Cell line derived xenograft (CDX) study with HCC1428 tumors
Format: in vivo, BALB/c nude mice
Conditions: 45 mg/kg QD p.o.; for TGI value: versus vehicle group
Method: For this xenograft, supplemental estradiol benzoate injections (40 μg/20 μl/mouse) are administered subcutaneously twice a week to BALB/c nude mice, starting one week prior to cell implantation and continuing through to the end of study. After implantation, HCC1428 tumor were allocated to treatment arms once a median tumor volume of about 181 mm^3 was reached. In Table 3A the abbreviation “p.o.” refers to oral administration and the abbreviation “QD×28” refers to administration once a day for 28 days.
Tumors were measured and mice were weighed twice a week during the experimental period. The tumor volume (mm3) was estimated using the formula: TV=a×b2/2, where “a” and “b” were the long and the short diameter of a tumor, respectively. The Tumor volumes were used to calculate tumor growth inhibition (TGI, an indicator of antitumor activity) using the formula: TGI %: (1−{T/T0/Ct/C0}/1−{C0/Ct})×100 where Tt=median tumor volume of treated at time t, T0=median tumor volume of treated at time 0, Ct=median tumor volume of control at time t and C0=median tumor volume of control at time 0.
For this xenograft, supplemental estradiol benzoate injections (40 μg/20 μl/mouse) are administered subcutaneously twice a week to BALB/c nude mice, starting one week prior to cell implantation and continuing through to the end of study. After implantation, HCC1428 tumor were allocated to treatment arms once a median tumor volume of about 181 mm^3 was reached. In Table 4A the abbreviation “p.o.” refers to oral administration and the abbreviation “QD×28” refers to administration once a day for 28 days.
Tumors were measured and mice were weighed twice a week during the experimental period. The tumor volume (mm^3) was estimated using the formula: TV=a×b2/2, where “a” and “b” were the long and the short diameter of a tumor, respectively. The Tumor volumes were used to calculate tumor growth inhibition (TGI, an indicator of antitumor activity) using the formula: TGI %: (1−{T/T0/Ct/C0}/1−{C0/Ct})×100 where Tt=median tumor volume of treated at time t, T0=median tumor volume of treated at time 0, Ct=median tumor volume of control at time t and C0=median tumor volume of control at time 0. […] At 100 mg/kg QD the mean tumor volume achieved was 116 mm3, on Day 71. The tumor growth inhibition (TGI) of these treatments compared with vehicle group on Day 28 or 71 of the treatment is summarized in Table 4B (See FIG. 3).

With `NC(=O)c1cccc2cn(-c3ccc([C@@H]4CCCNC4)cc3)nc12` [niraparib, reference compound] the mean tumor volume (Compound A study) was 230 mm^3, the TGI value (Compound A study) was 75.2% and the mean tumor volume (Compound B study) was 230 mm^3. For the same molecule, the TGI value (Compound B study) was 75.2%.
